Laboratory results from patent US9463251B2, “Anti-ETBR antibodies and immunoconjugates” (Genentech, Inc., priority 2012, dated 2016).
Starred links: 1 amine or outer side, 2 acyl side, 3 side chain; linkers in the order of their positions; H or OH if unused. Non-standard residues stand in square brackets, D forms with d. Residues, ends and D or L forms follow the SMILES beside them. *: point of attachment. Dolaproine = CO[C@@H]([C@@H]1CCCN1)[C@@H](C)C(=O)O; Hexanoyl(6-maleimido) = O=C1C=CC(=O)N1CCCCCC(=O)*; Dil = CC[C@H](C)[C@H](NC)[C@@H](CC(=O)O)OC; PABC = O=C(OCc1ccc(N[*:1])cc1)[*:2]; X1 = C[C@@H](N*)[C@@H](O)c1ccccc1; Cit = NC(=O)NCCC[C@H](N)C(=O)O; NMeV = CN[C@H](C(=O)O)C(C)C

Legend:
Type in all cases: cell-based
Settings in all cases: five days, read-out: EC50 (free linker-drug, without antibody)
[1] = system: In vitro-derived resistant UACC-257X2.2 cells; test: In vitro cell proliferation (CellTiter-Glo), in vitro-derived resistant cells
Protocol: For resistance developed in vitro, UACC-257X2.2 cells were adapted to increasing concentrations of anti-ETBR-vc-MMAE in culture dishes over the course of two months.
(§1) In vivo- and in vitro-derived resistant UACC-257X2.2 cells were then assayed for sensitivity to increasing concentrations of anti-ETBR-vc-MMAE.
(§2) In vitro cell proliferation of the cell lines in the presence of the immunoconjugates was assessed. Cells were plated at 1,500 cells per well in 50 μL of normal growth medium in 96-well clear-bottom plates. Twenty-four hours later, an additional 50 μL of culture medium with serial dilutions of immunoconjugates (ch5E9-vc-MMAE or control anti-gD-vc-MMAE) were added to triplicate wells. Five days later, cell survival was determined using CellTiter-Glo Luminescent Cell Viability Reagent (G7572, Promega Corporation, Madison, Wis.) using an EnVision 2101 Mutilabel Reader (Perkin-Elmer, Waltham, Mass.).

[2] = system: In vivo-derived resistant UACC-257X2.2 cells; test: In vitro cell proliferation (CellTiter-Glo), in vivo-derived resistant cells
Protocol: Tumor #359 was harvested and the cells were dissociated for growth in vitro (referred to herein as in vivo-derived resistant UACC-257X2.2 cells).
as §1, §2

[3] = system: Parental UACC-257X2.2 cells; test: In vitro cell proliferation (CellTiter-Glo), parental cells
Protocol: as §2

## CC[C@H](C)[C@@H]([C@@H](CC(=O)N1CCC[C@H]1[C@H](OC)[C@@H](C)C(=O)N[C@H](C)[C@@H](O)c1ccccc1)OC)N(C)C(=O)[C@@H](NC(=O)[C@H](C(C)C)N(C)C(=O)OCc1ccc(NC(=O)[C@H](CCCNC(N)=O)NC(=O)[C@@H](NC(=O)CCCCCN2C(=O)C=CC2=O)C(C)C)cc1)C(C)C [MC-vc-PAB-MMAE] ({Hexanoyl(6-maleimido)}-V[Cit][PABC][NMeV]V[Dil][Dolaproine]-X1)
[1]
  EC50: 3.5 nM
[2]
  EC50: 0.77 nM
[3]
  EC50: 0.28 nM
